Here are results for 13 compounds from ChEMBL document CHEMBL1133244, “Solid-phase synthesis of an arylsulfone hydroxamate library” (Bioorg Med Chem Lett, 2000).

Active and inactive are the calls of the source. The calls are words filed in the database; no cut-off is given here. Some results are limits rather than exact numbers.

The target in experiment [1] is Phosphodiesterase 4 (Cavia porcellus). Nature of the experiment: Phosphodiesterase 4 inhibitory activity measured against guinea pig macrophage homogenate.
Experiment [2] deals with T1, 72 kDa type IV collagenase (Homo sapiens, UniProt P08253). The experiment can be described thus: Inhibitory activity against recombinant matrix metalloprotease-2.
Experiment [3] deals with T2, Stromelysin-1 (Homo sapiens, UniProt P08254). The experiment can be described thus: Inhibitory activity against recombinant matrix metalloprotease-3.
The target in experiment [4] is T3, Interstitial collagenase (Homo sapiens, UniProt P03956).
T3 sequence (P03956 whole entry): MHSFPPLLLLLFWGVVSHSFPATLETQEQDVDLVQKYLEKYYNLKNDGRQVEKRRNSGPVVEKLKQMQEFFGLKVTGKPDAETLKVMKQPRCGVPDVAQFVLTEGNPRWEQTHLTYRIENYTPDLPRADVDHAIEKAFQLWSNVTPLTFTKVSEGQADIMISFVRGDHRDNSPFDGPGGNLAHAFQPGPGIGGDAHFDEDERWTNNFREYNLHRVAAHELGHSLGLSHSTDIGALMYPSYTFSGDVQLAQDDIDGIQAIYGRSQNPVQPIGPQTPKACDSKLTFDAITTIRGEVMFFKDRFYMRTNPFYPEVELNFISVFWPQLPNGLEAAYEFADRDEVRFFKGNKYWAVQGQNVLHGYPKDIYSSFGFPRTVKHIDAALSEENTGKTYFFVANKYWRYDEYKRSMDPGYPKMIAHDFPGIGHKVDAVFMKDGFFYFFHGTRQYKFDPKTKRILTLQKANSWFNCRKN
Nature of the experiment: Inhibition of Matrix metalloprotease-1.

Experiment [5] has as its target T3, Interstitial collagenase. The experiment can be described thus: In vitro inhibition of human recombinant Matrix metalloprotease-1.
The target of experiment [6] is T2, Stromelysin-1. The experiment can be described thus: In vitro inhibition of human recombinant Matrix metalloprotease-3.
The nature of experiment [7]: In vitro for the inhibition of TNF alpha release by human peripheral blood monocytes (PBMs). It is filed as functional.
The target of experiment [8] is T1, 72 kDa type IV collagenase.
Description: In vitro inhibition of human recombinant Matrix metalloprotease-2.
For experiment [9], the target named is Disintegrin and metalloproteinase domain-containing protein 17 (Homo sapiens) (UniProt P78536). Nature of the experiment: Inhibitory activity against TACE.
Disintegrin and metalloproteinase domain-containing protein 17 (Homo sapiens), sequence (P78536 whole entry, the tested form may be a part): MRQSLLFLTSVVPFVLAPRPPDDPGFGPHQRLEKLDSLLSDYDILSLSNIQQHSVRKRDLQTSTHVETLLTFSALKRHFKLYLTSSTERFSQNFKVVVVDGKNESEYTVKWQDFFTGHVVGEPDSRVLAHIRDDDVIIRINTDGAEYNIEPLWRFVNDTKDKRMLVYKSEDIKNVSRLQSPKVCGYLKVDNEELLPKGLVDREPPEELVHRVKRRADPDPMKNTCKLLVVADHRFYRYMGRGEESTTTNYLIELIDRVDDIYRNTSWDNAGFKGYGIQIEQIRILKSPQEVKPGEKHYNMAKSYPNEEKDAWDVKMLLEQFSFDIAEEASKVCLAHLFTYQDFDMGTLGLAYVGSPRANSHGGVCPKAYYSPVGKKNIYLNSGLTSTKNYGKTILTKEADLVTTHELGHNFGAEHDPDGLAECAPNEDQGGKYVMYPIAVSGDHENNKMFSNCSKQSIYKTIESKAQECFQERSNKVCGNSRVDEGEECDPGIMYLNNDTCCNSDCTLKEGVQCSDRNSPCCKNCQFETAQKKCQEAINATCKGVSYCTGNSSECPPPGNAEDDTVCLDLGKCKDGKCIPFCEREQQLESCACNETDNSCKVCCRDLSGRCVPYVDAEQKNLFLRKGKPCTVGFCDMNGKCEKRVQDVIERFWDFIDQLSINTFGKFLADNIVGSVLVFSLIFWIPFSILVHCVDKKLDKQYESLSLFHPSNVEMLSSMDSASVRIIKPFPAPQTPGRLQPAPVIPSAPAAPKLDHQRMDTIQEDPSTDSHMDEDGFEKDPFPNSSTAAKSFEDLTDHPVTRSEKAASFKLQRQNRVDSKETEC

T1 sequence (P08253 whole entry): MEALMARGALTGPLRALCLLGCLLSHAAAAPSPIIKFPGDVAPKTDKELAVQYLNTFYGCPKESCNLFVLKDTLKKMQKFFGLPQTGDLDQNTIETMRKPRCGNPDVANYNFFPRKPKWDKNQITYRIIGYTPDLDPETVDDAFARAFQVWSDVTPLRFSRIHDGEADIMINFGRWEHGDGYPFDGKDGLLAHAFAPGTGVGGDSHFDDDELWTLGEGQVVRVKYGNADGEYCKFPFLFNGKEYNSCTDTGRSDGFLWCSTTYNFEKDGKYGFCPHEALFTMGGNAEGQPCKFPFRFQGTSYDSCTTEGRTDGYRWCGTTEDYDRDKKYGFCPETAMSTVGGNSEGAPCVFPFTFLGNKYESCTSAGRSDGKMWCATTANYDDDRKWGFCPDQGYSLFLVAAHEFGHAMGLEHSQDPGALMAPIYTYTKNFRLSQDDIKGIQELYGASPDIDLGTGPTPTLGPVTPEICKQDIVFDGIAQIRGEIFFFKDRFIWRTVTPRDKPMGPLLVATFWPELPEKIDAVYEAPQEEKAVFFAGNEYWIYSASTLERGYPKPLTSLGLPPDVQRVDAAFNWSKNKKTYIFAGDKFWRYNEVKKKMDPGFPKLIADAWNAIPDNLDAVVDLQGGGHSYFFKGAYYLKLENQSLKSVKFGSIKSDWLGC
T2 sequence (P08254 whole entry): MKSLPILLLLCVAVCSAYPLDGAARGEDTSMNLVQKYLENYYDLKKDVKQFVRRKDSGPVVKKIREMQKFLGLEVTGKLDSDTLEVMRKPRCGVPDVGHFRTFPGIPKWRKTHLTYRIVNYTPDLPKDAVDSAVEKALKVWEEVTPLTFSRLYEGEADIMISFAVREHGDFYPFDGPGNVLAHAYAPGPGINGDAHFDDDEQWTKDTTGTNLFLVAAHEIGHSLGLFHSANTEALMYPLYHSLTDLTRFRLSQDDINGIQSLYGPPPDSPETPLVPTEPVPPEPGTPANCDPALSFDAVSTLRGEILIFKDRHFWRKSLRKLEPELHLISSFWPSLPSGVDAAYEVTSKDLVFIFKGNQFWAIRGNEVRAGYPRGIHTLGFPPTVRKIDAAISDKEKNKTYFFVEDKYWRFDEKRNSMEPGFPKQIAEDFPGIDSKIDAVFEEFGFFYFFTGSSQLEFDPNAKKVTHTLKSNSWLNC

The term IC50 denotes the point on the concentration scale where inhibition reaches its midpoint. `COc1ccc(S(=O)(=O)C(CCCCc2ccc3c(c2)OCO3)CC(=O)NO)cc1OC1CCCC1` (centres undefined): the IC50 in experiment [1] was 11 nM; in experiment [2] it was greater than 10000 nM; on Stromelysin-1 [3], greater than 10000 nM; against Interstitial collagenase [4] it was greater than 10000 nM.

As for `COc1ccc(S(=O)(=O)C(CCCCc2ccccc2)CC(=O)NO)cc1OC` (centres undefined), the IC50 (in [2]; on Stromelysin-1 [3]; on Interstitial collagenase [4]) was greater than 10000 nM in each case.

Broadly, the Ki is the equilibrium dissociation constant of an inhibitor or competing ligand from its target. Regarding `CCCCC(CC)C(CC(=O)NO)S(=O)(=O)c1ccc(OC)cc1` (centres undefined), the results for the inhibitory constant (Ki) (on Interstitial collagenase [5]; at Stromelysin-1 [6]; in [8]) were 357 nM, 184 nM and 4 nM, respectively. In [7], this compound gave an IC50 greater than 10000 nM. Moreover, the outcome in experiment [9] was inactive.

As to `CCOC(=O)C1CCCC(C(CC(=O)NO)S(=O)(=O)c2ccc(OC)cc2)C1` (centres undefined), the figures for the Ki (on Interstitial collagenase [5]; at Stromelysin-1 [6]; in [8]) were 1010 nM, 60 nM and 0.8 nM, respectively. In [7], half-maximal inhibition (IC50) required 4600 nM. The outcome in experiment [9] was inactive.

Turning to `COc1ccc(S(=O)(=O)C(CC(=O)NO)C2CCCCC2)cc1` (centres undefined), the values for the Ki (on Interstitial collagenase [5]; on Stromelysin-1 [6]; in [8]) were 1710 nM, 86 nM and 8 nM, respectively. In experiment [7], the IC50 is greater than 10000 nM. For the same compound, in [9], the outcome was inactive.

Take `COC(=O)c1ccc(C(CC(=O)NO)S(=O)(=O)c2ccc(OC)cc2)cc1` (centres undefined): the Ki on Interstitial collagenase [5] worked out at 1900 nM; on Stromelysin-1 [6], 4420 nM; in experiment [8] it was 88 nM. The compound also registered a half-maximal inhibitory concentration (IC50) in experiment [7] greater than 10000 nM. Besides, in experiment [9], the outcome was inactive.

For the compound `COc1ccc(S(=O)(=O)C(CC(=O)NO)c2ccc(OC(C)C)cc2)cc1` (centres undefined), the Ki (at Interstitial collagenase [5]; at Stromelysin-1 [6]; in experiment [8]) was greater than 10000 nM in each case. The 50% inhibitory concentration (IC50) in experiment [7] was greater than 10000 nM. In addition, the outcome in experiment [9] was inactive.

On to `COc1ccc(S(=O)(=O)C(CC(=O)NO)c2ccc(Oc3ccccc3)cc2)cc1` (centres undefined), for which the Ki (on Interstitial collagenase [5]; at Stromelysin-1 [6]; in experiment [8]) was greater than 10000 nM each time. The 50% inhibitory concentration (IC50) stood at 280 nM in experiment [1] and 730 nM in experiment [7]. Moreover, the outcome in [9] was inactive.

Regarding `CCCCCCC(CC(=O)NO)S(=O)(=O)c1ccc(OC)cc1` (centres undefined), the values for the inhibition constant (Ki) (on Interstitial collagenase [5]; on Stromelysin-1 [6]; in experiment [8]) were 9590 nM, 734 nM and 31 nM, respectively. This compound also gave an IC50 in [7] of 1400 nM. The outcome in [9] was inactive.

In the case of `COc1ccc(S(=O)(=O)C(CC(=O)NO)c2ccc(OCc3ccccc3)cc2)cc1` (centres undefined), the inhibition constant Ki (on Interstitial collagenase [5]; at Stromelysin-1 [6]; in experiment [8]) was greater than 10000 nM in each case. In addition, the IC50 in [1] stood at 520 nM; in experiment [7], 1200 nM. The result in [9] was inactive.

In the case of `CCCCC(CC(=O)NO)S(=O)(=O)c1ccc(OC)cc1` (centres undefined), the values for the Ki (at Interstitial collagenase [5]; at Stromelysin-1 [6]; in experiment [8]) were 4170 nM, 404 nM and 30 nM, respectively. In experiment [7], this compound yielded a half-inhibitory concentration (IC50) greater than 10000 nM. For the same compound, the outcome in experiment [9] was inactive.

On to `COc1ccc(S(=O)(=O)C(CC(=O)NO)c2ccc(-c3ccccc3)cc2)cc1` (centres undefined), for which the Ki (on Interstitial collagenase [5]; at Stromelysin-1 [6]; in [8]) was greater than 10000 nM throughout. Also, the IC50 in experiment [1] is 3600 nM; in [7] it was 4400 nM. The result in experiment [9] was inactive.

`COc1ccc(S(=O)(=O)C(CCCCc2ccccc2)CC(=O)NO)cc1OC1CCCC1` (centres undefined): the IC50 in [1] is 6.9 nM; in [2], greater than 10000 nM; at Stromelysin-1 [3], greater than 10000 nM; at Interstitial collagenase [4], greater than 10000 nM.
